Measured values published in US9375000B2, “Pesticidal arylpyrrolidines” (Bayer Intellectual Property GmbH, priority 2011, dated 2016).

Assays:
Assay type in all cases: in vivo
[1] = tested on: Larvae of Spodoptera litura; test: Larvae of Spodoptera litura, method using artificial feeds; conditions: artificial feed, after 7 days
Method: (§1) Unless not mentioned otherwise, the test solutions were prepared as follows:
(§2) Solvent: 3 parts by weight Dimethylformamide
(§3) Emulsifier: 1 part by weight Polyoxyethylene alkyl phenyl ether
(§4) In order to make an appropriate formulation of an active compound, 1 part by weight of the active compound is mixed with the above mentioned amount of solvent and emulsifier and the mixture is diluted with water to a prescribed concentration. Ammonium salt or ammonium salt and penetration enhancer in a dosage of 1000 ppm are added to the desired concentration if necessary.
[A Method Using Artificial Feeds (Trade Name: Insecta LFM, Manufactured by Nosan Corporation)]
Powdery artificial feeds (2.3 g) were added to a plastic cup (diameter: 7.5 cm, height: 4 cm) to achieve a certain thickness. Water-diluted liquid (5 ml) of the active compound prepared above having predetermined concentration was evenly poured thereto and allowed to stand until the feeds were solidified. Five of the 3rd-instar larvae of Spodoptera litura were released in respective cups, and covered. The cups were put in a temperature controlled room at 25° C. and humidity of 50 to 60%, and the number of dead larvae after 7 days was determined to calculate the pesticidal ratio. 100% pesticidal ratio means death of all the larvae, while 0% pesticidal ratio means no dead larvae.

[2] = tested on: Two-Spotted Spider Mite (Tetranychus urticae); test: Two-spotted spider mite (Tetranychus urticae) spray test on kidney bean; conditions: after 7 days
Method: as §1, §2, §3, §4
50 to 100 adult mites of Tetranychus urticae were inoculated to leaves of kidney bean at two-leaf stage planted in a pot of 6 cm in diameter. After one day, test solution at the appropriate concentration was sprayed thereon in a sufficient amount using a spray gun. After the spraying, the plant pot was placed inside a greenhouse, and after 7 days, the acaricidal activity was calculated. An acaricidal activity of 100% means that all mites were killed, whereas an acaricidal activity of 0% means that no mite was killed.

[3] = tested on: Cucurbit Leaf Beetle (Aulacophora femoralis); test: Cucurbit leaf beetle (Aulacophora femoralis) cucumber leaf dip test; conditions: after 7 days
Method: as §1, §2, §3, §4
Leaves of cucumber were immersed in the test solution at the appropriate concentration, and the leaves were dried in air. The leaves were then put in a plastic cup containing sterilized black soil and five Aulacophora femoralis at second instar larvae were released in the cup. The cups were placed in a temperature-controlled chamber at 25° C. After 7 days, the number of dead larvae was counted, and thus the insecticidal activity was calculated. An insecticidal activity of 100% means that all larvae were killed, whereas an insecticidal activity of 0% means that no larva was killed.

[4] = active compound concentration 20 ppm
[5] = active compound concentration 4 ppm

Compound	insecticidal activity (pesticidal ratio) [1, 4]	acaricidal activity [2, 4]	insecticidal activity [3, 4]	further results
CS(=O)(=O)CC(=O)NCc1ccc(N2CCC(c3cc(Cl)c(Cl)c(Cl)c3)(C(F)(F)F)C2O)cc1C(F)(F)F (mixture of isomers) [A1-55]	100%	100%	100%	
Cc1cc(N2CCC(c3cc(Cl)c(Cl)c(Cl)c3)(C(F)(F)F)C2O)ccc1CNC(=O)C1CC1 (mixture of isomers) [A1-132]	100%	100%	100%	
CCC(=O)NCc1ccc(N2CCC(c3cc(Cl)c(Cl)c(Cl)c3)(C(F)(F)F)C2O)cc1F (mixture of isomers) [A1-151]	100%	100%	100%	
O=C(NCc1ccc(N2CCC(c3cc(Cl)c(Cl)c(Cl)c3)(C(F)(F)F)C2O)cc1F)C1CC1 (mixture of isomers) [A1-154]	100%	100%	100%	
CC(=O)NCc1ccc(N2CCC(c3cc(Cl)c(Cl)c(Cl)c3)(C(F)(F)F)C2O)cc1Br (mixture of isomers) [A1-161]	100%	100%	100%	
O=C(NCc1ccc(N2CCC(c3cc(Cl)c(Cl)c(Cl)c3)(C(F)(F)F)C2O)cc1Br)C1CC1 (mixture of isomers) [A1-165]	100%	100%	100%	
CCC(=O)NCc1ccc(N2CCC(c3cc(C(F)(F)F)cc(C(F)(F)F)c3)(C(F)(F)F)C2O)cc1C (mixture of isomers) [A1-184]	100%	100%	100%	
Cc1cc(N2CCC(c3cc(C(F)(F)F)cc(C(F)(F)F)c3)(C(F)(F)F)C2O)ccc1CNC(=O)C1CC1 (mixture of isomers) [A1-187]	100%	100%	100%	
COCCC(=O)NCc1ccc(N2CCC(c3cc(C(F)(F)F)cc(C(F)(F)F)c3)(C(F)(F)F)C2O)cc1C (mixture of isomers) [A1-190]		100%	100%	
CC(=O)NCc1ccc(N2CCC(c3cc(C(F)(F)F)cc(C(F)(F)F)c3)(C(F)(F)F)C2O)cc1F (mixture of isomers) [A1-205]	100%	100%	100%	
CCC(=O)NCc1ccc(N2CCC(c3cc(C(F)(F)F)cc(C(F)(F)F)c3)(C(F)(F)F)C2O)cc1F (mixture of isomers) [A1-206]	100%	100%	100%	
O=C(NCc1ccc(N2CCC(c3cc(C(F)(F)F)cc(C(F)(F)F)c3)(C(F)(F)F)C2O)cc1F)C1CC1 (mixture of isomers) [A1-209]	100%	100%	100%	
CC(=O)NC(C)c1ccc(N2CCC(c3cc(Cl)c(Cl)c(Cl)c3)(C(F)(F)F)C2O)cc1 (mixture of isomers) [A2-12]	100%	100%		
CC(NC(=O)C1CC1)c1ccc(N2CCC(c3cc(Cl)c(Cl)c(Cl)c3)(C(F)(F)F)C2O)cc1 (mixture of isomers) [A2-16]	100%	100%	100%	
CSCC(=O)NCc1ccc(N2CCC(c3cc(C(F)(F)F)cc(C(F)(F)F)c3)(C(F)(F)F)C2O)nc1Br (mixture of isomers) [A3-163]	100%	100%	100%	insecticidal activity (pesticidal ratio) [1, 5]: 100%; insecticidal activity [3, 5]: 100%
C[S+]([O-])CC(=O)NCc1ccc(N2CCC(c3cc(C(F)(F)F)cc(C(F)(F)F)c3)(C(F)(F)F)C2O)nc1Br (mixture of isomers) [A3-164]	100%	98%	100%	insecticidal activity (pesticidal ratio) [1, 5]: 100%; insecticidal activity [3, 5]: 100%

Compound	insecticidal activity (pesticidal ratio) [1, 4]	acaricidal activity [2, 4]	insecticidal activity [3, 4]	further results
CS(=O)(=O)CC(=O)NCc1ccc(N2CCC(c3cccc(C(F)(F)F)c3)(C(F)(F)F)C2O)cc1C(F)(F)F (racemic) [A1-303]		100%	100%	
O=C(CC1CC1)NCc1ccc(N2CCC(c3cccc(C(F)(F)F)c3)(C(F)(F)F)C2O)nc1C(F)(F)F (racemic) [A3-226]		100%	100%	acaricidal activity [2, 5]: 100%; insecticidal activity [3, 5]: 100%
CCC(=O)NCc1ccc(N2CCC(c3cc(Cl)cc(Cl)c3)(C(F)(F)F)C2O)cc1Cl (centres unmarked) [A1-2]		100%	100%	
COCCC(=O)NCc1ccc(N2CCC(c3cc(Cl)cc(Cl)c3)(C(F)(F)F)C2O)cc1Cl (centres unmarked) [A1-8]		100%	100%	
CC(=O)NCc1ccc(N2CCC(c3cc(Cl)c(Cl)c(Cl)c3)(C(F)(F)F)C2O)cc1Cl (centres unmarked) [A1-12]	100%	100%		
CCCC(=O)NCc1ccc(N2CCC(c3cc(Cl)cc(Cl)c3)(C(F)(F)F)C2O)cc1C(F)(F)F (centres unmarked) [A1-36]	100%	100%		
O=C(CC1CC1)NCc1ccc(N2CCC(c3cc(Cl)cc(Cl)c3)(C(F)(F)F)C2O)cc1C(F)(F)F (centres unmarked) [A1-39]		100%	100%	
COCCC(=O)NCc1ccc(N2CCC(c3cc(Cl)cc(Cl)c3)(C(F)(F)F)C2O)cc1C(F)(F)F (centres unmarked) [A1-41]	100%	100%		
CC(=O)NCc1ccc(N2CCC(c3cc(Cl)c(Cl)c(Cl)c3)(C(F)(F)F)C2O)cc1C(F)(F)F (centres unmarked) [A1-45]	100%	100%		
N#CCC(=O)NCc1ccc(N2CCC(c3cc(Cl)c(Cl)c(Cl)c3)(C(F)(F)F)C2O)cc1Br (centres unmarked) [A1-525]				insecticidal activity (pesticidal ratio) [1, 5]: 100%; acaricidal activity [2, 5]: 100%
CCC(=O)NCc1ccc(N2CCC(c3cc(Cl)c(Cl)c(Cl)c3)(C(F)(F)F)C2O)nc1C (centres unmarked) [A3-79, N-({6-[2-hydroxy-3-(3,4,5-trichlorophenyl)-3-(trifluoromethyl)-pyrrolidin-1-yl]-2-methylpyridin-3-yl}methyl)propanamide]				pest or weed control at 20 ppm ([1]; Spodoptera litura, 168 h, active compound concentration 20 ppm, read-out: insecticidal activity (pesticidal ratio)): 100%; pest or weed control at 20 ppm ([2]; Tetranychus urticae, 168 h, active compound concentration 20 ppm, read-out: acaricidal activity): 100%
CC(C)CC(=O)NCc1ccc(N2CCC(c3cc(Cl)c(Cl)c(Cl)c3)(C(F)(F)F)C2O)nc1C(F)(F)F (centres unmarked) [A3-288]	100%	100%		insecticidal activity (pesticidal ratio) [1, 5]: 100%; acaricidal activity [2, 5]: 100%
CCNC(=O)NCc1ccc(N2CCC(c3cc(Cl)c(Cl)c(Cl)c3)(C(F)(F)F)C2O)nc1C(F)(F)F (centres unmarked) [A3-297]	100%	100%		insecticidal activity (pesticidal ratio) [1, 5]: 100%; acaricidal activity [2, 5]: 100%
CC(=O)NCc1ccc(N2CCC(c3cc(Cl)c(F)c(Cl)c3F)(C(F)(F)F)C2O)nc1Br (centres unmarked) [A3-322]		98%		insecticidal activity (pesticidal ratio) [1, 5]: 100%
N#CCC(=O)NCc1ccc(N2CCC(c3cc(Cl)c(Cl)c(Cl)c3)(C(F)(F)F)C2O)nc1C(F)(F)F (centres unmarked) [A3-421]		100%		insecticidal activity (pesticidal ratio) [1, 5]: 100%
